# In patent publication US7767240B2, “Microbiological control in poultry processing” (priority 2001, dated 2010):
# Where “and” joins values, the source holds several entries; their conditions need not be identical. Identical values can stand only once.
# Experiments:
# Escherichia coli = experiment: AOAC test method, kill of bacterial culture; assay type: cell-based
# Method: (§1) One such series of tests involved determinations of microbiological control against Escherichia coli bacteria. Another set of tests involved determinations of microbiological control against Enterococcus faecium. In each case, comparative tests were carried out in the same manner utilizing the AOAC test method. Such test involves exposing a culture of the microorganism to various concentrations of a test solution prepared from an aqueous stock solution of the compound under test. At various time intervals the halogen in the test suspensions is chemically neutralized, and the amount of viable bacteria remaining is enumerated by plating onto nutrient agar and incubating for 2 days at 37° C. Results are expressed at the log10 colony forming units (CFU). The concentration of the compound required to achieve complete kill (i.e., no viable bacteria remain) within 30 seconds is determined in the test.
# Table 43 summarizes the data obtained in the tests using respectively, 1,3-dibromo-5,5-dimethylhydantoin (DBDMH) and N,N′-bromochloro-5,5-dimethylhydantoin (BCDMH) and in which the microorganism in each case was Escherichia coli. It can be seen that 1,3-dibromo-5,5-dimethylhydantoin passed the test at one milligram of bromine, as […] per liter of water, as evidenced by the complete kill within 30 seconds, whereas 1,3-bromochloro-5,5-dimethylhydantoin required two milligrams of bromine, as Br2, per liter of water to achieve complete kill within 30 seconds.
# Enterococcus faecium = experiment: AOAC test method, kill of bacterial culture; assay type: cell-based
# Method: as §1
# Table 44 summarizes the data obtained in the tests using respectively 1,3-dibromo-5,5-dimethylhydantoin (DBDMH) and N,N-bromochloro-5,5-dimethylhydantoin (BCDMH) and in which the microorganism in each case was Enterococcus faecium.
# [1] = tested on: Pseudomonas aeruginosa (ATCC 15442) biofilm; experiment: MBEC biofilm eradication test (Calgary biofilm device); assay type: cell-based; conditions: one-hour biocide contact time
# Description: Table 45 summarizes test results performed at MBEC Biofilm Technologies, Inc., Calgary, Canada on the effectiveness of various biocides on biofilm removal. The test procedure, developed at the University of Calgary, utilizes a device which allows the growth of 96 identical biofilms under carefully controlled conditions. The device consists of a two-part vessel comprised of an upper plate containing 96 pegs that seals against a bottom plate. The bottom plate can consist of either a trough (for biofilm growth) or a standard 96-well plate (for biocide challenge). The biofilms develop on the 96 pegs. The device has been used as a general method for evaluating the efficacy of antibiotics and biocides towards biofilms. See in this connection H. Ceri, et al., “The MBEC Test: A New In Vitro Assay Allowing Rapid Screening for Antibiotic Sensitivity of Biofilm”, Proceedings of the ASM, 1998, 89, 525; Ceri, et al., “Antifungal and Biocide Susceptibility testing of Candida Biofilms using the MBEC Device”, Proceedings of the Interscience Conference on Antimicrobial Agents and Chemotherapy, 1998, 38, 495; and H. Ceri, et al., “The Calgary Biofilm Device: A New Technology for the Rapid Determination of Antibiotic Susceptibility of Bacterial Biofilms”, Journal of Clinical Microbiology, 1999, 37, 1771-1776.
# Six biocide systems were evaluated using the above test procedure and test equipment. Five of these systems were oxidizing biocides, viz., chlorine (from NaOCl), halogen (from NaOCl+NaBr), halogen (from BCDMH), bromine (from DBDMH), and chlorine (from trichloroisocyanuric acid), all expressed as bromine as Br2 in mg/L, so that all test results were placed on the same basis. The sixth biocide was glutaraldehyde, a non-oxidizing biocide.
# These biocide systems were used to challenge biofilms of Pseudomonas aeruginosa (ATCC 15442). This is a Gram (−) bacterium which is ubiquitous in microbiological slimes found in many water systems. See in this connection J. W. Costerton and H. Anwar, “Pseudomonas aeruginosa: The Microbe and Pathogen”, in Pseudomonas aeruginosa Infections and Treatment, A. L. Baltch and R. P. Smith editors, Marcel Dekker publishers, New York, 1994. In the field of poultry processing, S. Notermans, J. Dormans, and G. C. Mead, Biofouling, 1991, Vol. 5, pages 21-36, report observation of biofilms in poultry slaughter houses by use of scanning electron microscopy.
# In Table 45 the MBEC (minimum biofilm eradication concentration) results presented are for the one-hour biocide contact time used in the test. The values given for the halogen containing biocides are expressed in terms of mg/L of bromine as Br2. The data on the glutaraldehyde is in terms of mg/L as active ingredient. […] In fact, only slightly more than one-half as much bromine from DBDMH was required to remove the biofilm as compared to the total halogen, expressed as Br2, that was required from BCDMH.
# [2] = assay type: physicochemical
# Description: Another mode of applying the microbiocidally-effective amounts of solid-state microbiocides of these embodiments of the invention is to cause the microbiocide to be leached into water streams passing through conduits and into tanks or other washing devices utilized in the processing of the poultry. For example, suitable solid forms of the microbiocide, preferably a bromine-based microbiocide, such as tablets, briquettes, pellets, nuggets, or granules are placed in suitable feeding devices through which a stream of water is passed. The passage of the water through the bed of the microbiocide results in the stream continuously dissolving small quantities of the microbiocide to thereby provide microbiocidally effective amounts of the microbiocide in the water. 1,3-Dibromo-5,5-dimethylhydantoin is especially preferred for use in this mode of application because of its relatively low solubility and thus relatively slow rate of dissolution in water at ambient room temperatures. This translates into relatively long periods of use before need of refilling the device holding the solids.
# [3] = 0.5 mg/L as Br2, contact time 30 sec
# [4] = 0.5 mg/L as Br2, contact time 1 min
# [5] = 0.5 mg/L as Br2, contact time 2 min
# [6] = 0.5 mg/L as Br2, contact time 3 min
# [7] = 0.5 mg/L as Br2, contact time 4 min
# [8] = 0.5 mg/L as Br2, contact time 5 min
# [9] = 0.5 mg/L as Br2, contact time 10 min
# [10] = 1.0 mg/L as Br2, contact time 30 sec
# [11] = 1.0 mg/L as Br2, contact time 1 min
# [12] = 1.0 mg/L as Br2, contact time 2 min
# [13] = 1.0 mg/L as Br2, contact time 3 min
# [14] = 1.0 mg/L as Br2, contact time 4 min
# [15] = 1.0 mg/L as Br2, contact time 5 min
# [16] = 1.0 mg/L as Br2, contact time 10 min
# [17] = 2.0 mg/L as Br2, contact time 30 sec
# [18] = 2.0 mg/L as Br2, contact time 1 min
# [19] = 2.0 mg/L as Br2, contact time 2 min
# [20] = 2.0 mg/L as Br2, contact time 3 min
# [21] = 2.0 mg/L as Br2, contact time 4 min
# [22] = 2.0 mg/L as Br2, contact time 5 min
# [23] = 2.0 mg/L as Br2, contact time 10 min
smiles,measurement,setting,value
"CC1(C)C(=O)N(Br)C(=O)N1Br [DBDMH, 1,3-dibromo-5,5-dimethylhydantoin]",Log10 CFU Recovered,Escherichia coli; [3],>4.48 Log10 CFU
same,Log10 CFU Recovered,Escherichia coli; [4],1.70 Log10 CFU
same,Log10 CFU Recovered,Escherichia coli; [5],0 Log10 CFU
same,Log10 CFU Recovered,Escherichia coli; [6],0 Log10 CFU
same,Log10 CFU Recovered,Escherichia coli; [7],0 Log10 CFU
same,Log10 CFU Recovered,Escherichia coli; [8],0 Log10 CFU
same,Log10 CFU Recovered,Escherichia coli; [9],0 Log10 CFU
same,Log10 CFU Recovered,Escherichia coli; [10],0 Log10 CFU
same,Log10 CFU Recovered,Escherichia coli; [11],0 Log10 CFU
same,Log10 CFU Recovered,Escherichia coli; [12],0 Log10 CFU
same,Log10 CFU Recovered,Escherichia coli; [13],0 Log10 CFU
same,Log10 CFU Recovered,Escherichia coli; [14],0 Log10 CFU
same,Log10 CFU Recovered,Escherichia coli; [15],0 Log10 CFU
same,Log10 CFU Recovered,Escherichia coli; [16],0 Log10 CFU
same,Log10 CFU Recovered,Escherichia coli; [17],0 Log10 CFU
same,Log10 CFU Recovered,Escherichia coli; [18],0 Log10 CFU
same,Log10 CFU Recovered,Escherichia coli; [19],0 Log10 CFU
same,Log10 CFU Recovered,Escherichia coli; [20],0 Log10 CFU
same,Log10 CFU Recovered,Escherichia coli; [21],0 Log10 CFU
same,Log10 CFU Recovered,Escherichia coli; [22],0 Log10 CFU
same,Log10 CFU Recovered,Escherichia coli; [23],0 Log10 CFU
same,concentration required to achieve complete kill within 30 seconds,"Escherichia coli; Escherichia coli, AOAC test",one
same,Log10 CFU Recovered,Enterococcus faecium; [3],4.32 Log10 CFU
same,Log10 CFU Recovered,Enterococcus faecium; [4],2.36 Log10 CFU
same,Log10 CFU Recovered,Enterococcus faecium; [5],0.00 Log10 CFU
same,Log10 CFU Recovered,Enterococcus faecium; [6],0.00 Log10 CFU
same,Log10 CFU Recovered,Enterococcus faecium; [7],0.00 Log10 CFU
same,Log10 CFU Recovered,Enterococcus faecium; [8],0.00 Log10 CFU
same,Log10 CFU Recovered,Enterococcus faecium; [9],0.00 Log10 CFU
same,Log10 CFU Recovered,Enterococcus faecium; [10],0.00 Log10 CFU
same,Log10 CFU Recovered,Enterococcus faecium; [11],0.00 Log10 CFU
same,Log10 CFU Recovered,Enterococcus faecium; [12],0.00 Log10 CFU
same,Log10 CFU Recovered,Enterococcus faecium; [13],0.00 Log10 CFU
same,Log10 CFU Recovered,Enterococcus faecium; [14],0.00 Log10 CFU
same,Log10 CFU Recovered,Enterococcus faecium; [15],0.00 Log10 CFU
same,Log10 CFU Recovered,Enterococcus faecium; [16],0.00 Log10 CFU
same,Log10 CFU Recovered,Enterococcus faecium; [17],0.00 Log10 CFU
same,Log10 CFU Recovered,Enterococcus faecium; [18],0.00 Log10 CFU
same,Log10 CFU Recovered,Enterococcus faecium; [19],0.00 Log10 CFU
same,Log10 CFU Recovered,Enterococcus faecium; [20],0.00 Log10 CFU
same,Log10 CFU Recovered,Enterococcus faecium; [21],0.00 Log10 CFU
same,Log10 CFU Recovered,Enterococcus faecium; [22],0.00 Log10 CFU
same,Log10 CFU Recovered,Enterococcus faecium; [23],0.00 Log10 CFU
same,concentration required to achieve complete kill within 30 seconds,"Enterococcus faecium; Enterococcus faecium, AOAC test",one
same,"MBEC, avg.",[1],1.4 mg/L of bromine as Br2
same,MBEC (minimum biofilm eradication concentration),[1]; individual determinations,"1.4 mg/L of bromine as Br2 and 1.4, 1.4 mg/L of bromine as Br2"
same,solubility in water,[2],405 ppm expressed as Cl2
